What was measured:
[1] = tested on: isolated perfused rat heart; assay: Isolated perfused rat heart, low flow ischemia/reperfusion: heart mechanics (LVEDP, LVDevP, CPP); conditions: antagonist alone 1 μM, pre-ischemic period, mean ± S.E.M.
Method: (§1) In brief, the rats were anaesthetized with sodium pentobarbital (60 mg/kg) given by intraperitoneal injection. The chest were opened, and the heart was rapidly excised, and placed in cold (4° C.) heparinized (20 units/ml) Krebs Henseleit solution. […] Coronary perfusion pressure (CPP), left ventricular pressure (LVP) and left ventricular developed pressure (LVDevP; peak left ventricular systolic pressure minus LVEDP) were measured.
(§2) After equilibration of 15 min, hearts were paced at 300 beats/min with an electrical stimulator via two silver electrodes attached to the right atrium and an additional 30 min of perfusion was carried out (pre-ischemic period). Ischemia was induced by reducing the flow rate from 15 ml/min to 1 ml/min for 20 min (ischemic period). A normal flow rate (15 ml/min) was then restored and the perfusion was continued for another 30 min (reperfusion period).

[2] = tested on: isolated perfused rat heart; assay: Creatine kinase (CK) and lactate dehydrogenase (LDH) activities in heart perfusates; conditions: antagonist alone 1 μM; mU/min/g w.w. vs time 20 to 50 min; mean ± S.E.M.
Method: as §1, §2
The perfusate, eluted from the heart during pre-ischemic and reperfusion periods, was collected in an ice-cooled beaker as 2.5-min samples collection. Each sample was used for the determination of CK and LDH activities by means of a spectrophotometrical method.

In the case of `COC(=O)[C@H]1[C@H]2C[C@H]3c4[nH]c5ccccc5c4CCN3C[C@H]2CC[C@@H]1O` [Rauwolscine, rauwolscine], the “AUC related to LVEDP” value ([1]; mm Hg vs time 0 to 50 min) is reported as 505 ± 64, the “AUC related to CPP” value ([1]; mm Hg vs time 20 to 50 min) is reported as 1680 ± 98 and the “AUC related to LVDevP” value ([1]; mm Hg vs time 20 to 50 min) is reported as 912 ± 64. For the same compound, the “AUC related to CK” value [2] was 5584 ± 297 and the “AUC related to LDH” value [2] was 12988 ± 522.

Reference: patent US20050101668A1, “Aminotetralin derivatives as a medicament for the treatment and prevention of myocardial ischemic conditions” (Chiesi Farmaceutici S.p.A., priority 2003, published 2005)
